Data as given in PubChem BioAssay AID1259407 (Chemical Carcinogenesis Research Information System (CCRIS), 2018).
Calls of active or inactive are those of the source. No rule for the calls is given here.

Test system: CCRIS mutagenicity, Ames/micronucleus/aberration tests
Experiment: CCRIS mutagenicity studies
[1] = Test System: AMES SALMONELLA TYPHIMURIUM, Strain/Indicator: TA98, Metabolic Activation: NONE, Method: PREINCUBATION
[2] = Test System: AMES SALMONELLA TYPHIMURIUM, Strain/Indicator: TA100, Metabolic Activation: NONE, Method: PREINCUBATION
[3] = Test System: AMES SALMONELLA TYPHIMURIUM, Strain/Indicator: TA1535, Metabolic Activation: NONE, Method: PREINCUBATION
[4] = Test System: AMES SALMONELLA TYPHIMURIUM, Strain/Indicator: TA1537, Metabolic Activation: NONE, Method: PREINCUBATION

Cc1cccc2ccc3cc4ccccc4cc3c12
mutagenic call (Test System: AMES SALMONELLA TYPHIMURIUM, Strain/Indicator: TA100, Metabolic Activation: RAT, INTACT HEPATOCYTES, AROCLOR 1254, Method: PREINCUBATION): active; positive | mutagenic call (Test System: AMES SALMONELLA TYPHIMURIUM, Strain/Indicator: TA100, Metabolic Activation: RAT, NADPH-FORTIFIED HOMOGENIZED HEPATOCYTES, AROCLOR 1254, Method: PREINCUBATION): active; positive | mutagenic call (Test System: AMES SALMONELLA TYPHIMURIUM, Strain/Indicator: TA100, Metabolic Activation: RAT, SONICATED HEPATOCYTES, AROCLOR 1254, Method: PREINCUBATION): active; positive

NCCCNCCCCNCCCN
mutagenic call (Test System: E. COLI, Strain/Indicator: WP2 UVRA (PKM101), Metabolic Activation: NONE, Method: STANDARD PLATE): inactive; negative | mutagenic call (Test System: E. COLI, Strain/Indicator: WP2 UVRA/OXYR (PKM101), Metabolic Activation: NONE, Method: STANDARD PLATE): inactive; negative

CCC(Cl)C(=O)O (configuration not stated)
mutagenic call (End Point: IN VITRO CHROMOSOMAL ABERRATIONS, Test System: CHL CELLS, Metabolic Activation: RAT, LIVER, S-9, SODIUM PHENOBARBITAL AND 5,6-BENZOFLAVONE): inactive; negative | mutagenic call (End Point: IN VITRO CHROMOSOMAL ABERRATIONS, Test System: CHL/IU CELLS, Metabolic Activation: NONE): active; positive (structural changes) | mutagenic call (End Point: IN VITRO MICRONUCLEUS, Test System: CHL/IU CELLS, Metabolic Activation: NONE): active; positive

Brc1ccccc1-c1ccccc1
mutagenic call (Test System: AMES SALMONELLA TYPHIMURIUM, Strain/Indicator: TA98, Metabolic Activation: HAMSTER, LIVER, S-9, AROCLOR 1254, Method: PREINCUBATION): inactive; negative | mutagenic call [1]: inactive; negative | mutagenic call (Test System: AMES SALMONELLA TYPHIMURIUM, Strain/Indicator: TA98, Metabolic Activation: RAT, LIVER, S-9, AROCLOR 1254, Method: PREINCUBATION): inactive; negative | mutagenic call (Test System: AMES SALMONELLA TYPHIMURIUM, Strain/Indicator: TA100, Metabolic Activation: HAMSTER, LIVER, S-9, AROCLOR 1254, Method: PREINCUBATION): inactive; negative | mutagenic call [2]: inactive; negative | mutagenic call (Test System: AMES SALMONELLA TYPHIMURIUM, Strain/Indicator: TA100, Metabolic Activation: RAT, LIVER, S-9, AROCLOR 1254, Method: PREINCUBATION): inactive; negative | mutagenic call (Test System: AMES SALMONELLA TYPHIMURIUM, Strain/Indicator: TA1535, Metabolic Activation: HAMSTER, LIVER, S-9, AROCLOR 1254, Method: PREINCUBATION): inactive; negative | mutagenic call [3]: inactive; negative | mutagenic call (Test System: AMES SALMONELLA TYPHIMURIUM, Strain/Indicator: TA1535, Metabolic Activation: RAT, LIVER, S-9, AROCLOR 1254, Method: PREINCUBATION): inactive; negative | mutagenic call (Test System: AMES SALMONELLA TYPHIMURIUM, Strain/Indicator: TA1537, Metabolic Activation: HAMSTER, LIVER, S-9, AROCLOR 1254, Method: PREINCUBATION): inactive; negative | mutagenic call [4]: inactive; negative | mutagenic call (Test System: AMES SALMONELLA TYPHIMURIUM, Strain/Indicator: TA1537, Metabolic Activation: RAT, LIVER, S-9, AROCLOR 1254, Method: PREINCUBATION): inactive; negative

Cc1ccccc1C=O
mutagenic call (Test System: AMES SALMONELLA TYPHIMURIUM, Strain/Indicator: TA97, Metabolic Activation: HAMSTER, LIVER, S-9, AROCLOR 1254 (10 OR 30%), Method: PREINCUBATION): inactive; negative | mutagenic call (Test System: AMES SALMONELLA TYPHIMURIUM, Strain/Indicator: TA97, Metabolic Activation: NONE, Method: PREINCUBATION): inactive; negative | mutagenic call (Test System: AMES SALMONELLA TYPHIMURIUM, Strain/Indicator: TA97, Metabolic Activation: RAT, LIVER, S-9, AROCLOR 1254 (10 OR 30%), Method: PREINCUBATION): inactive; negative | mutagenic call (Test System: AMES SALMONELLA TYPHIMURIUM, Strain/Indicator: TA98, Metabolic Activation: HAMSTER, LIVER, S-9, AROCLOR 1254 (10 OR 30%), Method: PREINCUBATION): inactive; negative | mutagenic call [1]: inactive; negative | mutagenic call (Test System: AMES SALMONELLA TYPHIMURIUM, Strain/Indicator: TA98, Metabolic Activation: RAT, LIVER, S-9, AROCLOR 1254 (10 OR 30%), Method: PREINCUBATION): inactive; negative | mutagenic call (Test System: AMES SALMONELLA TYPHIMURIUM, Strain/Indicator: TA100, Metabolic Activation: HAMSTER, LIVER, S-9, AROCLOR 1254 (10 OR 30%), Method: PREINCUBATION): inactive; negative | mutagenic call [2]: inactive; negative | mutagenic call (Test System: AMES SALMONELLA TYPHIMURIUM, Strain/Indicator: TA100, Metabolic Activation: RAT, LIVER, S-9, AROCLOR 1254 (10 OR 30%), Method: PREINCUBATION): inactive; negative | mutagenic call (Test System: AMES SALMONELLA TYPHIMURIUM, Strain/Indicator: TA1535, Metabolic Activation: HAMSTER, LIVER, S-9, AROCLOR 1254 (10 OR 30%), Method: PREINCUBATION): inactive; negative | mutagenic call [3]: inactive; negative | mutagenic call (Test System: AMES SALMONELLA TYPHIMURIUM, Strain/Indicator: TA1535, Metabolic Activation: RAT, LIVER, S-9, AROCLOR 1254 (10 OR 30%), Method: PREINCUBATION): inactive; negative | mutagenic call (Test System: AMES SALMONELLA TYPHIMURIUM, Strain/Indicator: TA1537, Metabolic Activation: HAMSTER, LIVER, S-9, AROCLOR 1254 (10 OR 30%), Method: PREINCUBATION): inactive; negative | mutagenic call [4]: inactive; negative | mutagenic call (Test System: AMES SALMONELLA TYPHIMURIUM, Strain/Indicator: TA1537, Metabolic Activation: RAT, LIVER, S-9, AROCLOR 1254 (10%), Method: PREINCUBATION): inactive; negative

C1=CCCCC1
mutagenic call (Test System: AMES SALMONELLA TYPHIMURIUM, Strain/Indicator: TA98, Metabolic Activation: NONE, Method: STANDARD PLATE): inactive; negative | mutagenic call (Test System: AMES SALMONELLA TYPHIMURIUM, Strain/Indicator: TA98, Metabolic Activation: RAT LIVER S-9, SOVOL, Method: STANDARD PLATE): inactive; negative | mutagenic call (Test System: AMES SALMONELLA TYPHIMURIUM, Strain/Indicator: TA100, Metabolic Activation: NONE, Method: STANDARD PLATE): inactive; negative | mutagenic call (Test System: AMES SALMONELLA TYPHIMURIUM, Strain/Indicator: TA100, Metabolic Activation: RAT LIVER S-9, SOVOL, Method: STANDARD PLATE): inactive; negative | mutagenic call (Test System: Ames Salmonella typhimurium, Strain/Indicator: TA98, Metabolic Activation: None, Method: Preincubation): inactive; negative | mutagenic call (Test System: Ames Salmonella typhimurium, Strain/Indicator: TA98, Metabolic Activation: Rat, Liver, S9, Sodium phenobarbital and 5,6-benzoflavone (10%), Method: Preincubation): inactive; negative | mutagenic call (Test System: Ames Salmonella typhimurium, Strain/Indicator: TA100, Metabolic Activation: None, Method: Preincubation): inactive; negative | mutagenic call (Test System: Ames Salmonella typhimurium, Strain/Indicator: TA100, Metabolic Activation: Rat, Liver, S9, Sodium phenobarbital and 5,6-benzoflavone (10%), Method: Preincubation): inactive; negative | mutagenic call (Test System: Ames Salmonella typhimurium, Strain/Indicator: TA1535, Metabolic Activation: None, Method: Preincubation): inactive; negative | mutagenic call (Test System: Ames Salmonella typhimurium, Strain/Indicator: TA1535, Metabolic Activation: Rat, Liver, S9, Sodium phenobarbital and 5,6-benzoflavone (10%), Method: Preincubation): inactive; negative | mutagenic call (Test System: Ames Salmonella typhimurium, Strain/Indicator: TA1537, Metabolic Activation: None, Method: Preincubation): inactive; negative | mutagenic call (Test System: Ames Salmonella typhimurium, Strain/Indicator: TA1537, Metabolic Activation: Rat, Liver, S9, Sodium phenobarbital and 5,6-benzoflavone (10%), Method: Preincubation): inactive; negative | mutagenic call (Test System: Ames Salmonella typhimurium, Strain/Indicator: TA2637, Metabolic Activation: None, Method: Preincubation): active; positive | mutagenic call (Test System: Ames Salmonella typhimurium, Strain/Indicator: TA2637, Metabolic Activation: Rat, Liver, S9, Sodium phenobarbital and 5,6-benzoflavone (10%), Method: Preincubation): inactive; negative | mutagenic call (Test System: E. coli, Strain/Indicator: WP2uvrA/pKM101, Metabolic Activation: None, Method: Preincubation): inactive; negative | mutagenic call (Test System: E. coli, Strain/Indicator: WP2uvrA/pKM101, Metabolic Activation: Rat, Liver, S9, Sodium phenobarbital and 5,6-benzoflavone (10%), Method: Preincubation): inactive; negative

CCCCN(COC(C)=O)N=O
mutagenic call (Test System: UDS RAT UROTHELIAL CELLS, Strain/Indicator: THY INCORP, Metabolic Activation: NONE): active; positive
